Experimental data published in US20070059339A1, “1-O-BETA-D-glucopyranosylgeraniol-10,5-olide and use thereof” (ISKRA INDUSTRY CO., LTD., priority 2005, published 2007).
Entries after “also recorded” stand apart in the source; their conditions may differ. Marks after values point to notes of the source that are not given here.

What was measured:
[1] = Oral administration for two weeks at 2500 mg/kg per day, observation of side effects; type: in vivo; conditions: ten ICR male mice, versus control group
[2] = Hair growth ameliorating action on hair-removed back of mice, transdermal administration; type: in vivo, C3H male mice; conditions: for Hair growth score versus control group (FIG. 9): 10 mg once a day
From the text: 6 week-old C3H male mice (Nippon SLC, body weight: about 30 g) were pre-bred for 1 week, then, divided into two groups of a control group and an administration group (4 mice for each group). Hair on the back of the mice in both groups was removed with an electric shaver, and hair growth effect was investigated. […] For the mice in the control group, 45% water-containing ethanol was transdermally administered instead of the specimen solution for 28 days.
For observation of hair growth condition, hair growth score and hair length were measured.
For measurement of hair growth score, the back of a mouse on which a specimen solution or 45% water-containing ethanol had been applied was visually observed, and based on the conditions directly after hair removal, a case of no change was endowed with 0 point, a case of color change to blue at a center portion on the back was endowed with 1 point, a case of color change from blue black to gray at a center portion on the back was endowed with 2 points, a case of observation of hair growth at a center portion on the back was endowed with 3 points, and a case of covering about 50% at a center portion on the back with back hair and recovery of color before hair removal at a center portion on the back was endowed with 4 points. The score average value and the standard error of the mice in both the groups were measured. Since there was observed […] irregularity in hair growth score between the control group and the administration group, the Mann-Whitney U-test was carried out as a significant difference test between both groups.
On the other hand, for measurement of hair length, part of hair was collected every one week, then, 10 hairs were selected randomly while removing extremely longer hairs and extremely shorter hairs, and lengths of them were measured by a microscope.

[3] = Obesity ameliorating, lipid metabolism ameliorating and hypoglycemic action in mice bred with a high fat diet; type: in vivo, ddY male SPF mice
From the text: 6 week-old ddY male SPF mice (Nippon .SLC, body weight: about 30 g) were pre-bred for 1 week, then, divided into two groups of a control group and an administration group (5 mice for each group). Each of the mice in both the groups was bred for 6 weeks with a high fat diet (lard 40%, corn starch 10%, granulated sugar 9%, mineral mix 4%, vitamin mix 1%, casein 29%, cellulose 5%, lactose 2%). For the mice in the administration group, a specimen solution prepared by dissolving the compound (I) in purified water was continuously administered for 6 weeks with a dose of 250 mg/kg once a day while allowing water-drinking, and the body weight was measured at a frequency of once a week, during the feeding period with the high fat diet. For the mice in the control group, purified water was administered for 6 weeks instead of the specimen solution while allowing water-drinking.
The average value of the body weight of mice in each group and the standard error thereof were measured, and a significant difference test (t-test) between both the groups was carried out.
On the other hand, after completion of the above-mentioned continuous administration allowing water-drinking for 6 weeks, serum was collected from each mouse and blood biochemical values were measured, and liver and fat were excised and the weights of them were measured, respectively. Using the respective measurement results, the average value and the standard error were measured for each group, and a significant difference test (t-test) was carried out between both the groups.

[4] = 250 mg/kg once a day for 6 weeks, average +/- standard error of five mice
[5] = serum after 6 weeks, 250 mg/kg once a day, average +/- standard error of five mice

CC(C)=CC1C/C(=C/CO[C@@H]2OC(CO)[C@@H](O)C(O)C2O)C(=O)O1 (stereo partly drawn) [compound (I), 1-O-β-D-glucopyranosylgeraniol-10,5-olide]
Side effect [1]: did not provide a recognizable side effect; also recorded: no side effect was recognized at all | Hair growth score versus control group (FIG. 9) ([2]; day 7 to day 17 after transdermal administration): tended to be higher | Hair growth score versus control group (FIG. 9) ([2]; days 13, 15 and 16 after transdermal administration, Mann-Whitney U-test): significantly higher | Hair length versus control group ([2]; hair collected every one week, 10 hairs measured by microscope, 10 mg transdermally once a day, data not shown): no significant difference | Weight of fat, around kidney [3, 4]: 0.035 ± 0.010 g | Weight of fat, around posterior abdominal wall [3, 4]: 0.186 ± 0.096 g | Body weight versus control group (FIG. 8) ([3]; 250 mg/kg once a day for 6 weeks, weighed once a week): the body weight transited at a lower level | Blood biochemical value, blood glucose level ([3]; after 6 weeks, 250 mg/kg once a day, average +/- standard error of five mice): 183 +/− 35.7** mg/dL | Weight of liver ([3]; compound 250 mg/kg once a day for 6 weeks, average +/- standard error of five mice): 1.124 ± 0.124 g | Blood biochemical value, total cholesterol [3, 5]: 118 ± 22.3 mg/dL | Blood biochemical value, triglyceride [3, 5]: 26 ± 15.8 mg/dL
